We go through three compounds from US20030108620A1, “Pharmaceutical composition comprising a physiologically acceptable vanadium compound, salt or complex and at least a component selected from a na+/hinhibitors, cyclo-oxygenase inhibitors and caspase inhibitors” (priority 1999, published 2003).

Assay [1] has as its system hearts of phenobarbital anaesthetized rats. In words: Infarcted area after 60 minutes coronary artery occlusion and 180 minutes of reperfusion in anaesthetized rats. To be noted: for LA/AR ratio: normothermia (36.5-37.5° C.), mean±standard error margin, n=6, P<0.001, pretreated 25 minutes prior to CAO; for IA (% AR) / % Reduction: rat, 60 min CAO and 180 min reperfusion; for IA (% AR): i.v. bolus 25 minutes prior to CAO, BMOV 3.3 mg/kg, DMA 3.0 mg/kg; for % Reduction: reduction of IA (% AR) versus control. It is filed as in vivo, rat. The protocol:
Area at risk (AR) and infarcted area (IA) were determined in hearts of phenobarbital anaesthetized rats after 60 minutes coronary artery occlusion (CAO) and 180 minutes of reperfusion. […] The mean AR expressed as percentage of the left ventricle was not different between the control and the experimental group.

Another assay concerns deep burn wounds, dermis. In words: Deep burn wound model in the Yorkshire pig, preservation of the dermis. It counts as in vivo, Yorkshire White. To be noted: intravenously in a single dose; for % Preservation of dermis: equal dose in g/kg bodyweight. The text has this:
The Yorkshire pig has been chosen as the experimental animal because of all animal species this domestic pig seems to be the one with morphological and functional skin characteristics nearest to human skin and so best fulfils the requirements of a model for human skin. In basic architecture it resembles human skin in the relative thickness of the epidermis and dermis, the presence of epidermal ridges, a distinct dermal papillary layer and a deep layer of subdermal fat. Compared to human the elastic fibre content of porcine dermis is relatively low, but higher than in any other species. […] Studies on the proliferation rate of porcine epidermis show parallels with those of humans. The keratinous proteins are similar. Unlike the skin of rodents, the follicular pattern in pigs and humans is relatively sparse and arranged as single hairs or in groups of two or three follicles. […] The regulation of body temperature by the skin is more evident in humans than in the pig. In the skin of the pig no eccrine glands are found. It does have apocrine glands, but their role in thermoregulation remains debatable. The vascular anatomy of pig skin consists of a three layered network; lower, mid-dermal and sub epidermal. The size, orientation and distribution of the vessels are strikingly similar to human skin, but it does differ from humans in that the sub epidermal network is less dense. The vascularisation of the lower region of the follicle corresponds to that in humans. The healing of deep dermal bums, which depends on this phenomenon, might also be analogous. Studies on the thermal properties of porcine skin as a function of depth have been performed by measuring the tissue water content.
Protocol 1a: Twelve identical deep burn wounds were inflicted in each animal. The animal model used is developed in the Burn Research Institute (Beverwijk, The Netherlands) and is a standard for all of the experimental burn wound research. The model is also accepted by the animal experimental commission of the University of Amsterdam.
Protocol 1b: Six biopsies of 6 mm of the burned area were taken from each big and transferred to a non-burned area. Six biopsies of 6 mm of the non-burned area were be taken from each pig and transferred to a burned area. (Determination of the indirect injury) Animals: pig, Yorkshire White, female, +/− 30 kg. […]

For a further assay, the system named is swine myocardium. Particulars: also when administered after the onset of ischaemia; cited from earlier work.

For the compound `Cc1occc(=O)c1[O-].Cc1occc(=O)c1[O-].[O]=[V+2]` [BMOV, bis(maltolato)oxovanadium(IV)], in assay [1], the LA/AR ratio was found to be 45±3%, the “IA (% AR)” value stood at 45 % AR and the “% Reduction” value came to 36%. Moreover, in the assay on deep burn wounds, dermis, the “protection of structures in the dermis (deep vascular plexus, hair-adnexes, sweat glands)” value is on record as “protected” and the “% Preservation of dermis” value is 40-50%.
The like results for `CN(C)c1nc(N)c(C(=O)N=C(N)N)nc1Cl` [DMA, dimethylamiloride] were, in that order, 45±3%, 55 % AR, 21%, “protected” and 20%.
As for `CS(=O)(=O)O.CS(=O)(=O)c1cc(C(=O)NC(=N)N)ccc1N1CCCCC1` [HOE 694, (3-methylsulfonyl-4-piperidinobenzoyl)-guanidine methanesulfonate], the infarct size result in the assay on swine myocardium is reported as “substantial reduction of the infarct size”.
